{"source": "paper PMC6277767", "about": "“Broad and Region-Specific Impacts of the Synthetic Cannabinoid CP 55,940 in Adolescent and Adult Female Mouse Brains” (Frontiers in Molecular Neuroscience, 2018)", "assay": "CP 55,940 levels in eight brain regions 2 h after single i.p. 3 mg/kg injection (HPLC/MS/MS)", "assay_type": "in vivo, mouse", "conditions": "for CP 55,940 level: 3mg/kg CP 55,940, mean", "procedure": "The Bloomington Institutional Animal Care and Use Committee of Indiana University reviewed and approved the animal procedures. Female mice from the CD1 strain were utilized to match our study examining THC’s effects on the brain lipidome ([Leishman et al., 2018]). Mice were given a single i.p. injection of either 3 mg/kg CP or 1:1:18 cremophor:ethanol:saline vehicle (please refer to the section “3 mg/kg CP Is Relevant for Synthetic Cannabinoid Abuse and Has Stronger Effects on the Female Mouse Brain Lipidome During Adolescence” for a justification of dose and use of female mice). Three different age groups were given injections: PND 35 and PND 50 adolescents, and adult mice (PND 113). At least eight mice in each age group received CP and at least eight received vehicle. Matching the THC study time course ([Leishman et al., 2018]), mice were sacrificed via rapid decapitation 2 h after injection. Brains were immediately removed and flash-frozen in liquid nitrogen, and then stored at -80°C until dissections were performed. Brains were dissected on an ice-cold dissection plate into the following regions: STR, HIPP, CER, THAL, CTX, HYP, MID, and STEM. These abbreviations for these brain areas will be used exclusively when discussing the results generated by these specific dissections. Each dissected area was immediately placed in liquid nitrogen and then stored at -80°C until used for lipid extraction.\nTissue extracts were performed as previously described ([Bradshaw et al., 2006]; [Stuart et al., 2013]; [Raboune et al., 2014]; [Leishman et al., 2016a],[b], [2017], [2018]). First, samples were shock frozen in liquid nitrogen, weighed, and transferred to a centrifuge tube. The mass of the largest sample was multiplied by 50 to determine how many milliliters of HPLC-grade methanol (Fisher, Fair Lawn, NJ, United States) to add. Then, samples were spiked with 500 pmol deuterium-labeled NAGly (d8NAGly; Cayman Chemical, Ann Arbor, MI, United States). Samples were placed on ice in darkness for 2 h then individually homogenized and centrifuged at 19,000 × g for 20 min at 20°C. Supernatants were diluted with HPLC water (purified in house) to make a solution of 75% water, 25% supernatant. Lipids were partially purified on C18 solid phase extraction columns (Agilent, Palo Alto, CA, United States). A series of four elutions with 1.5 mL of 60%, 75%, 85%, and 100% methanol were collected ([Stuart et al., 2013]; [Leishman et al., 2016a],[b], [2018]).\nAs previously described ([Bradshaw et al., 2006]; [Tan et al., 2006]; [Smoum et al., 2010]; [Stuart et al., 2013]; [Tortoriello et al., 2013]; [Raboune et al., 2014]; [Leishman et al., 2016a],[b], [2017], [2018]), samples were analyzed using an Applied Biosystems API 3000 triple quadrupole mass spectrometer with electrospray ionization (Foster City, CA, United States). Using an Agilent XDB-C18 reversed phase analytical column and optimized mobile phase gradients, 20 μL from each elution were chromatographed. Two Shimadzu 10ADvp pumps (Columbia, MD, United States) provided the pressure for gradient elution. Mobile phase A: 20% methanol, 80% water (v/v) and 1 mM ammonium acetate (Sigma, St. Louis, MO, United States). Mobile phase B: 100% methanol, 1 mM ammonium acetate. Every method run began with 0% mobile phase B, reached 100% mobile phase B flowing at 0.2 mL/min, and gradually returned to 0% mobile phase B.\nThis screening library will be referred to as the lipidome when discussing data from this study. HPLC/MS/MS data were analyzed using Analyst software (Applied Biosystems) ([Bradshaw et al., 2006]; [Tan et al., 2006]; [Stuart et al., 2013]; [Tortoriello et al., 2013]; [Raboune et al., 2014]; [Leishman et al., 2016a],[b], [2017], [2018]). Chromatograms (Supplementary Figure 3) were generated by determining the retention time of analytes from the analytical column with a [M-1] or [M+1] parent peak and a fragmentation peak corresponding to the programmed values. […]", "key": {"[1]": {"conditions": "brainstem, PND 50, 3 mg/kg CP 55,940, one-way ANOVA p .000"}, "[2]": {"conditions": "cerebellum, PND 50, 3 mg/kg CP 55,940"}, "[3]": {"conditions": "cerebellum, adult, 3 mg/kg CP 55,940"}, "[4]": {"conditions": "cerebellum, PND 35, 3 mg/kg CP 55,940"}, "[5]": {"conditions": "cortex, PND 35, 3 mg/kg CP 55,940"}, "[6]": {"conditions": "hippocampus, PND 50, 3 mg/kg CP 55,940 vs Veh"}, "[7]": {"conditions": "hippocampus, adult, 3 mg/kg CP 55,940"}, "[8]": {"conditions": "hippocampus, PND 35, 3 mg/kg CP 55,940 vs vehicle"}, "[9]": {"conditions": "striatum, PND 50, 3mg/kg CP 55,940 vs Veh"}, "[10]": {"conditions": "striatum, adult, 3 mg/kg CP 55,940, one-way ANOVA p .000"}, "[11]": {"conditions": "striatum, PND 35, 3mg/kg CP 55,940"}, "[12]": {"conditions": "thalamus, PND 50, 3 mg/kg CP 55,940"}, "[13]": {"conditions": "thalamus, adult, 3 mg/kg CP 55,940"}, "[14]": {"conditions": "thalamus, PND 35, 3 mg/kg CP 55,940"}}}
{"smiles": "CCCCCCC(C)(C)c1ccc([C@@H]2C[C@H](O)CC[C@H]2CCCO)c(O)c1", "note": "[CP 55,940]", "values": [{"measurement": "CP 55,940 level, Mean", "setting": "brainstem, PND 50, 3 mg/kg CP 55,940", "value": "8.2E-11"}, {"measurement": "CP 55,940 level, Direction (relative to Veh)", "setting": "[1]", "value": "↑"}, {"measurement": "CP 55,940 level, Magnitude (x Veh level)", "setting": "[1]", "value": "infinite"}, {"measurement": "CP 55,940 level: Direction (relative to Veh)", "setting": "[2]", "value": "↑"}, {"measurement": "CP 55,940 level: Magnitude (x Veh level)", "setting": "[2]", "value": "infinite"}, {"measurement": "CP 55,940 level, Mean", "setting": "cerebellum, PND 50 female mice, 3 mg/kg CP 55,940", "value": "7.57E-11"}, {"measurement": "CP 55,940 level, Mean", "setting": "cerebellum, WT adult female mice, 3mg/kg CP 55,940", "value": "2.8E-10"}, {"measurement": "CP 55,940 level: Direction (relative to Veh)", "setting": "[3]", "value": "↑"}, {"measurement": "CP 55,940 level: Magnitude (x Veh level)", "setting": "[3]", "value": "infinite"}, {"measurement": "CP 55,940 level: Direction (relative to Veh)", "setting": "[4]", "value": "↑"}, {"measurement": "CP 55,940 level: Magnitude (x Veh level)", "setting": "[4]", "value": "infinite"}, {"measurement": "CP 55,940 level, Mean", "setting": "cerebellum, PND35 WT female mice, 3mg/kg CP 55,940", "value": "7.22E-11"}, {"measurement": "CP 55,940 level, Direction (relative to Veh)", "setting": "cortex, PND 50, 3 mg/kg CP 55,940", "value": "↑"}, {"measurement": "CP 55,940 level, Magnitude (x Veh level)", "setting": "cortex, PND 50, 3 mg/kg CP 55,940, ANOVA p .000", "value": "infinite"}, {"measurement": "CP 55,940 level, Mean", "setting": "cortex, PND 50 female mice, 3mg/kg CP 55,940", "value": "8.61E-11"}, {"measurement": "CP 55,940 level Direction (rel to Veh)", "setting": "[5]", "value": "↑"}, {"measurement": "CP 55,940 level, Magnitude (x Veh level)", "setting": "[5]", "value": "infinite"}, {"measurement": "CP 55,940 level, Mean", "setting": "cortex, PND 35 adolescent female mice, 3 mg/kg CP 55,940", "value": "1.11E-10"}, {"measurement": "CP 55,940 level, Direction (relative to Veh)", "setting": "[6]", "value": "↑"}, {"measurement": "CP 55,940 level, Magnitude (x Veh level)", "setting": "[6]", "value": "infinite"}, {"measurement": "CP 55,940 level", "setting": "hippocampus, PND 50 female mice", "value": "1.23E-10"}, {"measurement": "CP 55,940 level, Mean", "setting": "[7]", "value": "2.68E-10"}, {"measurement": "CP 55,940 level: Direction (relative to Veh)", "setting": "[7]", "value": "↑"}, {"measurement": "CP 55,940 level: Magnitude (x Veh level)", "setting": "[7]", "value": "infinite"}, {"measurement": "CP 55,940 level: Direction", "setting": "[8]", "value": "↑"}, {"measurement": "CP 55,940 level: Magnitude", "setting": "[8]", "value": "infinite"}, {"measurement": "CP 55,940 level, Mean", "setting": "hippocampus, PND 35 WT female mice, 3mg/kg CP 55,940", "value": "9.63E-11"}, {"measurement": "CP 55,940 level, Direction (relative to Veh)", "setting": "hypothalamus, PND 50, 3mg/kg CP 55,940", "value": "↑"}, {"measurement": "CP 55,940 level, Magnitude (x Veh level)", "setting": "hypothalamus, PND 50, 3mg/kg CP 55,940, ANOVA p .000", "value": "infinite"}, {"measurement": "CP 55,940 level, Mean", "setting": "hypothalamus, PND 50 female mice, 3mg/kg CP 55,940", "value": "4.38E-11"}, {"measurement": "CP 55,940 level, Mean", "setting": "hypothalamus, PND 35 adolescent female mice, 3 mg/kg", "value": "5.31E-11"}, {"measurement": "CP 55,940 level, Direction (relative to Veh)", "setting": "midbrain, PND 50, 3mg/kg CP 55,940", "value": "↑"}, {"measurement": "CP 55,940 level, Magnitude (x Veh level)", "setting": "midbrain, PND 50, 3mg/kg CP 55,940, ANOVA p .000", "value": "infinite"}, {"measurement": "CP 55,940 level, Mean", "setting": "midbrain, PND 50 female mice, 3mg/kg CP 55,940", "value": "1.21E-10"}, {"measurement": "CP 55,940 level, Mean", "setting": "midbrain, PND 35 WT adolescent female mice, 3 mg/kg", "value": "7.91E-11"}, {"measurement": "CP 55,940 level, Direction (relative to Veh)", "setting": "[9]", "value": "↑"}, {"measurement": "CP 55,940 level, Magnitude (x Veh level)", "setting": "[9]", "value": "infinite"}, {"measurement": "CP 55,940 level", "setting": "striatum, PND 50 female mice", "value": "5.87E-11"}, {"measurement": "CP 55,940 level, Mean", "setting": "striatum, adult, 3 mg/kg CP 55,940", "value": "2.08E-10"}, {"measurement": "CP 55,940 level, Direction (relative to Veh)", "setting": "[10]", "value": "↑"}, {"measurement": "CP 55,940 level, Magnitude (x Veh level)", "setting": "[10]", "value": "infinite"}, {"measurement": "CP 55,940 level: Direction (relative to Veh)", "setting": "[11]", "value": "↑"}, {"measurement": "CP 55,940 level: Magnitude (x Veh level)", "setting": "[11]", "value": "infinite"}, {"measurement": "CP 55,940 level: Direction (relative to Veh)", "setting": "[12]", "value": "↑"}, {"measurement": "CP 55,940 level: Magnitude (x Veh level)", "setting": "[12]", "value": "infinite"}, {"measurement": "CP 55,940 level, Mean", "setting": "thalamus, PND 50 female mice, 3 mg/kg CP 55,940", "value": "9.93E-11"}, {"measurement": "CP 55,940 level, Mean", "setting": "thalamus, WT adult female mice, 3mg/kg CP 55,940", "value": "2E-10"}, {"measurement": "CP 55,940 level: Direction (relative to Veh)", "setting": "[13]", "value": "↑"}, {"measurement": "CP 55,940 level: Magnitude (x Veh level)", "setting": "[13]", "value": "infinite"}, {"measurement": "CP 55,940 level, Direction (relative to Veh)", "setting": "[14]", "value": "↑"}, {"measurement": "CP 55,940 level, Magnitude (x Veh level)", "setting": "[14]", "value": "infinite"}, {"measurement": "CP 55,940 level, Mean", "setting": "thalamus, PND 35 adolescent female mice, 3 mg/kg CP 55,940", "value": "8.87E-11"}]}
